Reference: patent publication US6635429B1, “Heterodimeric nuclear receptors proteins, genes encoding same, and usage thereof” (Institut National de la Sante et de la Recherche Medicale, priority 1992, dated 2003)
Blank lines part the entries; values can stand above or below the molecule they belong to.

Assays:
RXRα-ER(C) = biological target: T1, RXRα-ER(C) (Mus musculus, UniProt P28700, A202E/D171H/D178A/D181Q/G144N/G162A/I142V/INS139MESAKETRY/INS205MKGGIRKDRRGGRMLKHKRQRDDGEGRGEVGSM/K150Y/K170G/K180N/L172N/L183T/L201Y/M203V/N179T/N190K/Q188R/Q198R/R146Y/R169Q/R177P/R187N/R191S/S147A/T167S/T173D/T175M/V168I/Y155W/Y194A/Y197L); test: 3ERE-URA3 reporter transactivation in yeast strain PL3 (OMPdecase activity); assay type: cell-based
T1 construct: (a.a. 1 to 467), mouse RXRαdn; expressed in transfected cells; host or cells: Saccharomyces cerevisiae PL3 (multicopy YEp10/YEp90, PGK promoter)
T1 sequence (P28700 with tags, fused parts or gaps INS139MESAKETRY/I142V/G144N/R146Y/S147A/K150Y/Y155W/G162A/T167S/V168I/R169Q/K170G/D171H/L172N/T173D/T175M/R177P/D178A/N179T/K180N/D181Q/L183T/R187N/Q188R/N190K/R191S/Y194A/Y197L/Q198R/L201Y/A202E/M203V/INS205MKGGIRKDRRGGRMLKHKRQRDDGEGRGEVGSM): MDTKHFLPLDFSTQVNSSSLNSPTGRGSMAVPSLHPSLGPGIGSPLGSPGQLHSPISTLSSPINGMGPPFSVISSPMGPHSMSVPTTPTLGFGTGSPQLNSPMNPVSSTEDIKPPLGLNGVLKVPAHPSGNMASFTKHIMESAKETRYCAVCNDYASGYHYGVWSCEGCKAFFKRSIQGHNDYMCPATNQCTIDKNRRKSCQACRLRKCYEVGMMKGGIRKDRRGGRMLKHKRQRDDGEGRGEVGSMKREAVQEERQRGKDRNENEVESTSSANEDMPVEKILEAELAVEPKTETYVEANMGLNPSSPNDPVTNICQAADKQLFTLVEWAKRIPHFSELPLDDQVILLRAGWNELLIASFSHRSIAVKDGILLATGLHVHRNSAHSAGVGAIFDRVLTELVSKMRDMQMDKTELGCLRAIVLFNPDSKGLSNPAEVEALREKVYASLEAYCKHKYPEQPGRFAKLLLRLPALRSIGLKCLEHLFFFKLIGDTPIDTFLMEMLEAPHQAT
Procedure: (§1) Induction of the reporter was determined by measuring the specific activity of the URA3 gene product OMPdecase (see above).
Vector without insert was used as a control (“None”).

RARα1-ER.CAS = biological target: T2, RARα1-ER.CAS (Homo sapiens, UniProt P10276, INS60IETQSSSSEEIVPSPPSPPPLPRIYKPCAVCNDYASGYHYGVWSCEGCKAFFKRSIQGHNDYMCPATNQCTIDKNRRKSCQACRLRKCYEVGMSKES)
T2 sequence (P10276 with tags, fused parts or gaps isoform P10276-3): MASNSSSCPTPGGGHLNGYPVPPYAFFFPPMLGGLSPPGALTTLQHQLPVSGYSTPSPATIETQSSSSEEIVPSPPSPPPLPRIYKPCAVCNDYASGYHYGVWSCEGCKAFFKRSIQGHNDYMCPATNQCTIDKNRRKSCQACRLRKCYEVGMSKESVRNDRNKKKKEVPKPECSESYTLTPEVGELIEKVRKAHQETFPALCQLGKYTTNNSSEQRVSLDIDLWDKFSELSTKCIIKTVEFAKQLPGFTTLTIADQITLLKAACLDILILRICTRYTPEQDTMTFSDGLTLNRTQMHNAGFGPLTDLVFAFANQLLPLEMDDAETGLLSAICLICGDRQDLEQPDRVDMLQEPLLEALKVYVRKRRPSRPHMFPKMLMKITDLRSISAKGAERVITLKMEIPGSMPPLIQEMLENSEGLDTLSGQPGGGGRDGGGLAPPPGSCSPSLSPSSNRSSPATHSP
Procedure: The 5′ prime flank of each construct contains a mammalian Kozak's sequence sandwiched between the EcoR1 and the translation start codon (5′-[…]-3′). […] PCR and site-directed mutagenesis were used to create RARα(DEF)-ER.CAS, RARα1(AB)-ER(C), RXRα(DE)-ER.CAS and RXRα(AB)-ER(C) as shown in FIG. 10a. All sequences generated by PCR or site directed mutagenesis were verified by sequencing. […] For transactivation experiments, transformants were grown exponentially for approximately 5 generations in selective medium […] uracil in the presence or absence of ligand, in conditions of diffuse light.
as §1
Vector without insert was used as a control (“None”). Transactivation data are expressed as OMPdecase activities; the mean values shown in the table were determined from duplicate assays with three individual transformants for each clone. The numbers in parentheses indicate the fold induction over the activity observed for each receptor in the absence of ligand.

[1] = test system: None (vector without insert); test: 3ERE-URA3 reporter in yeast strain PL3, vector without insert (control "None"); assay type: cell-based; settings: no receptor, yeast PL3, in presence of ligand
RARα = biological target: T3, RARα (Homo sapiens, UniProt P10276); test: URA3 reporter (DR5 etc.) transactivation in yeast strain YPH250 (OMPdecase activity); assay type: cell-based; settings: RARα alone, ligand 5×10^−7 M (500 nM)
T3 construct: The human RARα1 (aa 1-462); expressed in transfected cells; host or cells: Saccharomyces cerevisiae YPH250 (YEp10/YEp90)
T3 sequence (P10276 1-462): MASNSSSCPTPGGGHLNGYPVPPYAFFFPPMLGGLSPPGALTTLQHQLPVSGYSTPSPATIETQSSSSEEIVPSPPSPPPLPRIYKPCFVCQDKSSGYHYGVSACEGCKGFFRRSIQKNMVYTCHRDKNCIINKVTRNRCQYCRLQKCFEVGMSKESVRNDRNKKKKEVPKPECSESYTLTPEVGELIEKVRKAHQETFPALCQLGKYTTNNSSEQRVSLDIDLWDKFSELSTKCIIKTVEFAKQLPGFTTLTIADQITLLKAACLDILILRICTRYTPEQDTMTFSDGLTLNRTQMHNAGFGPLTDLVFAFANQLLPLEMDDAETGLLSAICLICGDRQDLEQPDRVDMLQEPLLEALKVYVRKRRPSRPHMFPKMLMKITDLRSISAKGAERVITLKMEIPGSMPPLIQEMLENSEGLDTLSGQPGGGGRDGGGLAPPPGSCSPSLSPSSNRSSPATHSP

hRAR-γ binding to β-RARE = biological target: T4, hRAR-γ binding to β-RARE (Homo sapiens, UniProt P13631); test: Gel retardation assay of RAR binding to β-RARE (RBF complementation); settings: with HeLa cell NE
T4 construct: fused to the amino terminal amino acid of full length hRAR-γ; 14 amino acids from the parental vector pEt3a (bacterially expressed preparation only) (N); made in house; host or cells: E. coli BL21 (DE3) plysS; also rVV-infected HeLa cells, rBV-infected Sf9 cells, yeast (ubiquitin fusion) and rabbit reticulocyte lysate
T4 sequence (P13631 1-454): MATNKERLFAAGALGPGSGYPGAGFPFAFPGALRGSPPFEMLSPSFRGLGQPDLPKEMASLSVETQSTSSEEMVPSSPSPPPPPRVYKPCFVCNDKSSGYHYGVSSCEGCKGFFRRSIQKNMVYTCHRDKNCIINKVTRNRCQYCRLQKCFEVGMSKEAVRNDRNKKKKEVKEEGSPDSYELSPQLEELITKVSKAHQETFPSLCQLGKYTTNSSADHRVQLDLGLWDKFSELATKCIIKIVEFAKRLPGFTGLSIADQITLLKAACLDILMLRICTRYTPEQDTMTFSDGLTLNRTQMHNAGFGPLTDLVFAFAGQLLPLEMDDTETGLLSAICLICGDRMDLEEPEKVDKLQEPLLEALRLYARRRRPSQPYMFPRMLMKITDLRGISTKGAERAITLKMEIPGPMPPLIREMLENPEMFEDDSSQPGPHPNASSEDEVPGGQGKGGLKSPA
T4 sequence (P28702 1-533 partner): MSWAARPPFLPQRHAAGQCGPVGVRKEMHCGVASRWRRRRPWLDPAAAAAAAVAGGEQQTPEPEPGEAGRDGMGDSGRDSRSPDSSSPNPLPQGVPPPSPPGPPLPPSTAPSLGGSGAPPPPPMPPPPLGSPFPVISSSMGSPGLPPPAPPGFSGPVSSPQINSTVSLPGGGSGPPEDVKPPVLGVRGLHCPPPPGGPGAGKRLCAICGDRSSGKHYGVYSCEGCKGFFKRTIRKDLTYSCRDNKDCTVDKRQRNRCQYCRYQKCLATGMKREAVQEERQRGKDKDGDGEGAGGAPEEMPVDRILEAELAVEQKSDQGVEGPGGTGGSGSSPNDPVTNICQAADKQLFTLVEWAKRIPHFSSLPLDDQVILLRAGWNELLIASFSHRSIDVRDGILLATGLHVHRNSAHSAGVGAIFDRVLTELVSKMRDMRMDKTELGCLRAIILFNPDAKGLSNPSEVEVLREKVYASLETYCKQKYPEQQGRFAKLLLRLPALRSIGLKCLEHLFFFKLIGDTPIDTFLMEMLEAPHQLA
Procedure: For gel retardation experiments comparing RAR and RXR subtypes and deletion mutants, all proteins were produced by in vitro translation in the presence of [^35S]methionine.
Purification of rVV- and rBV-expressed hRAR-γ is being described elsewhere (Chen et al., manuscript in preparation). […] All steps were carried out at 4° C. and RBF activity was monitored through all purification steps by a complementation gel retardation assay using bacterially-expressed hRAR-γ as described above. […] The column was washed with equilibration buffer until the A280 of the eluent returned to baseline. […] The column was washed with equilibration buffer until the A280 of the eluent returned to baseline and then with 4 column volumes of buffer A containing 0.45 M ammonium sulfate and 50 mM KCl. The column was then eluted with an 18 ml linear gradient from 0.45 to 0 M ammonium sulfate in buffer A containing 50 mM KCl.

[2] = test system: RARα and RXRα homodimers or heterodimers
[3] = FIG. 10b dose response, FIG. 10c ligand 10^−6 M

- induction of activation by RXRα-ER(C) (RXRα-ER(C); [3]): induced
SMILES: CC1=C(/C=C/C(C)=C\C=C\C(C)=C\C(=O)O)C(C)(C)CC=C1 [9C-ddRA, 9-cis 3,4-didehydroretinoic acid]

- conversion to 9-cis stereoisomers in yeast (RXRα-ER(C); inferred from lack of RXRα-ER(C) activation): not significantly converted
SMILES: CC1=C(/C=C/C(C)=C/C=C/C(C)=C/C(=O)O)C(C)(C)CC=C1 [T-ddRA, all-trans 3,4-didehydroretinoic acid]

SMILES: CC1=C(/C=C/C(C)=C/C=C/C(C)=C/C(=O)O)C(C)(C)CCC1 [T-RA, all-trans retinoic acid]
- OMP decase activity units (RARα1-ER.CAS; 3ERE-URA3 reporter, yeast PL3, in presence of ligand): 14.70 units
- stimulation of transactivation by RARα1-ER.CAS (RARα1-ER.CAS; [3]): comparably stimulated
- OMP decase activity units [1]: 0.02 units
- induction of OMPdecase activity, DR5-URA3 reporter (RARα): approx. 5 fold
- effect on formation of the hRAR-γ/β-RARE complex (hRAR-γ binding to β-RARE): In no case was the formation of the complex affected
- effect on binding of homodimers or heterodimers to the probes [2]: did not further stimulate

SMILES: CC1=C(/C=C/C(C)=C\C=C\C(C)=C\C(=O)O)C(C)(C)CCC1 [9C-RA, 9-cis retinoic acid]
- OMP decase activity units [1]: 0.02 units
- effect on binding of homodimers or heterodimers to the probes [2]: did not further stimulate
